Measurements reported in patent US8575091B1, “Amylin analogues and pharmaceutical compositions thereof” (Novo Nordisk A/S, priority 2012, dated 2013).
Where two headings read alike, the source gives them in different places. Numbered stars: 1 amine (or outer) side, 2 acyl side, 3 side chain; on linkers, the order of the positions; unused ones are H or OH. Bridge positions count the residues as written; N and C are the ends. Side chains are listed from the residue outwards. Peptide text beside a SMILES is read from it. * marks the point of attachment. C20 diacid = O=C(O)CCCCCCCCCCCCCCCCCCC(=O)*; γGlu = O=C(O)[C@H](CCC(=O)[*:2])N[*:1]

What was measured:
[1] = molecular target: T1, rat amylin receptor (Rattus norvegicus, UniProt P32214+Q9JJ73); experiment: Assay (VI) binding to the rat amylin receptor; conditions: rCTR bind IC50 divided by rAmylin-R bind IC50
T1 construct: expressed in transfected cells; host or cells: BHK tk'ts 13 (transient, FuGENE 6), membranes
T1 sequence (P32214 25-479 isoform P32214-2 limits assumed): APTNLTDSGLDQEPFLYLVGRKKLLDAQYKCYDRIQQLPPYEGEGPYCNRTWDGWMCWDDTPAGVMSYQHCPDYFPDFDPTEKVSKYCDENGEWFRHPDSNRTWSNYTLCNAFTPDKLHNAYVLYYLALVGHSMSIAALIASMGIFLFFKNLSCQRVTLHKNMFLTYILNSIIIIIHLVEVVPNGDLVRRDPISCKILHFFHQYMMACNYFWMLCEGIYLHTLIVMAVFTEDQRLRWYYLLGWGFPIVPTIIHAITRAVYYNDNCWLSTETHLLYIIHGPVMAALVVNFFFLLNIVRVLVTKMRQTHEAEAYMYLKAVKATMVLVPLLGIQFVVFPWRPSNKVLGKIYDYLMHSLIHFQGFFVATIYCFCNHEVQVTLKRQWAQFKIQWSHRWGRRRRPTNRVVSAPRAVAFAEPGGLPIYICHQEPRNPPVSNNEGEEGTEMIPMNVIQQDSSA
T1 sequence (Q9JJ73 23-147 partner): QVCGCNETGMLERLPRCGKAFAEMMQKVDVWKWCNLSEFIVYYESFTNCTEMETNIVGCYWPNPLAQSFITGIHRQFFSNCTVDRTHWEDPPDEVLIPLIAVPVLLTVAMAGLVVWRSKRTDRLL
Protocol: Assay (VI)—Determination of the Binding to the Rat Amylin Receptor
The assay was performed as described above (Assay (V)—Determination of binding to the human amylin receptor) with the exception that we used membranes prepared from BHK tk'ts 13 cells that were transiently transfected with the rat calcitonin receptor rat RAMP 3 at an equimolar ratio […]. The BHK tk'ts 13 cells were transiently transfected with rat calcitonin receptor using FuGENE® 6 (Roche), according to the manufacturer's recommendations. Cells were grown in DMEM with 10% FBS and 1% Pen/Strep. Approximately 48 hours after transfection, the cells were harvested and membranes were prepared.

[2] = molecular target: T2, human calcitonin receptor (Homo sapiens, UniProt P30988); experiment: Assay (VII) binding to the human calcitonin receptor (SPA, 125I-Calcitonin); conditions: read-out: hCTR bind IC50;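 further: cell membranes coupled to SPA beads, competitive displacement read by scintillation counting, IC50 derived from a one-site competition fit as a measure of receptor affinity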
T2 construct: expressed in transfected cells
T2 sequence (P30988 25-474): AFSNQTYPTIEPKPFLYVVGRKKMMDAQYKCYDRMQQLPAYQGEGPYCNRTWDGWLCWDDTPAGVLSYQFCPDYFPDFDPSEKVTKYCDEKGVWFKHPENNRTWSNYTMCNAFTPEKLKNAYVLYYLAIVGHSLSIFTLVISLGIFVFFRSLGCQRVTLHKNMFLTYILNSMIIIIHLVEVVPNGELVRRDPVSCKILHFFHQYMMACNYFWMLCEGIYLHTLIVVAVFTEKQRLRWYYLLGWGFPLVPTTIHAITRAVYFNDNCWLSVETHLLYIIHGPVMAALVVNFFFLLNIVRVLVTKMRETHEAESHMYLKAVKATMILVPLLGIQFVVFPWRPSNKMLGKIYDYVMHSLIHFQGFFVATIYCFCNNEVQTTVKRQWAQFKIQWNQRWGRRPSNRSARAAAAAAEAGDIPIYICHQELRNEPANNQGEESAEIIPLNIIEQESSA

[3] = molecular target: T3, human amylin receptor (amylin 3(a) receptor: human calcitonin receptor + RAMP-3) (Homo sapiens, UniProt O60896+P30988); experiment: Assay (II)a functional assay, human amylin receptor (CRE luciferase, BHK cells); type: cell-based; conditions: for EC50: read-out: hAmylin-R funct. EC50
T3 construct: expressed in transfected cells
T3 sequence (P30988 25-474): T2 sequence (P30988 25-474)
T3 sequence (O60896 24-148 partner): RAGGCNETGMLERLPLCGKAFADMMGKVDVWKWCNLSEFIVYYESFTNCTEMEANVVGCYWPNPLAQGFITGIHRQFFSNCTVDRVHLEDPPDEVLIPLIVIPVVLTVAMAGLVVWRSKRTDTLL

[4] = molecular target: T2, human calcitonin receptor; experiment: Assay (II)a functional assay, human calcitonin receptor (CRE luciferase, BHK cells);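 further: luminescence from a CRE-driven luciferase reporter, read by single photon counting after cells were exposed to test samples for 3 h at 37 °C under 5% CO2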; type: cell-based; conditions: read-out: hCTR funct. EC50
[5] = molecular target: T4, human amylin receptor (Homo sapiens, UniProt O60896+P30988); experiment: Assay (V) binding to the human amylin receptor (SPA, 125I-rat amylin); conditions: for IC50: human amylin receptor membranes, SPA, read-out: hAmylin-R bind IC50
T4 construct: expressed in transfected cells
T4 sequence (P30988 25-474): T2 sequence (P30988 25-474)
T4 sequence (O60896 24-148 partner): T3 sequence (O60896 24-148 partner)
Outline: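 SPA competition binding on membranes from Amylin 3(a)/CRE-luc cells, 35 ng/μL membranes with 0.05 mg/well beads. Buffer 50 mM Hepes pH 7.4, 1 mM CaCl2, 5 mM MgCl2, 0.1% OA, 0.02% Tween20. IC50 from one-site competition fit as affinity measure.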

[6] = Table 6, human functional selectivity (hCTR EC50 / hAmylin-R EC50)
[7] = Table 6a, human functional selectivity (hCTR EC50 / hAmylin-R EC50), at least 5
[8] = Table 6j, hCTR funct. EC50 / hAmylin-R funct. EC50
[9] = Table 6k, hCTR funct. EC50 / hAmylin-R funct. EC50
[10] = functional assay, human amylin receptor

| Ratio rCT/rAmylin binding ([1]; Table 7b) | Ratio rCT/rAmylin binding [1] | IC50 [2] | Ratio hCT/hAmylin funct. [3, 6] | Ratio hCT/hAmylin funct. [3, 7] | Ratio hCT/hAmylin funct. [3, 8] | Ratio hCT/hAmylin funct. [3, 9] | EC50 [3, 10] | EC50 [4] | IC50 [5] | Ratio hCT/hAmylin funct. ([3]; Table 6i, hCTR funct. EC50 / hAmylin-R funct. EC50) | EC50 ([3]; Table 6i, human amylin receptor functional) | Ratio rCT/rAmylin binding ([1]; Table 7c) | EC50 ([3]; Table 6j, human amylin receptor functional) | Ratio hCT/hAmylin binding ([5]; human binding ratio, included for comparison) | Compound |
| --- | --- | --- | --- | --- | --- | --- | --- | --- | --- | --- | --- | --- | --- | --- | --- |
| 67.0 | 67.0 | 8.01 nM | 8.7 | 8.7 | 8.7 | 8.7 | 0.099 nM | 0.857 nM | 0.577 nM | – | – | – | – | – | CC[C@H](C)[C@H](NC(=O)[C@H](C)NC(=O)CNC(=O)[C@H](Cc1ccccc1)NC(=O)[C@H](CC(N)=O)NC(=O)[C@@H]1CCCN1C(=O)[C@H](CO)NC(=O)[C@H](CO)NC(=O)[C@H](Cc1c[nH]cn1)NC(=O)[C@H](CCCNC(=N)N)NC(=O)[C@H](CC(C)C)NC(=O)[C@H](Cc1ccccc1)NC(=O)[C@H](CC(N)=O)NC(=O)[C@H](C)NC(=O)[C@H](CC(C)C)NC(=O)[C@H](CCCNC(=N)N)NC(=O)[C@H](CCC(N)=O)NC(=O)[C@@H](NC(=O)[C@H](C)NC(=O)[C@@H]1CSSC[C@H](NC(=O)[C@H](CCCCN)NC(=O)CC[C@H](NC(=O)CCCCCCCCCCCCCCCCCCC(=O)O)C(=O)O)C(=O)N[C@@H](CC(N)=O)C(=O)N[C@@H]([C@@H](C)O)C(=O)N[C@@H](C)C(=O)N[C@@H]([C@@H](C)O)C(=O)N1)[C@@H](C)O)C(=O)N1CCC[C@H]1C(=O)N[C@@H](CO)C(=O)N[C@@H](CO)C(=O)N[C@H](C(=O)N[C@@H](CC(N)=O)C(=O)N[C@H](C(=O)NCC(=O)N1CCC[C@H]1C(=O)N[C@@H](CCC(=O)O)C(=O)N[C@H](C(=O)N[C@@H](Cc1ccc(O)cc1)C(N)=O)[C@@H](C)O)C(C)C)[C@@H](C)O [Example 29] ({C20 diacid-γGlu}-KCNTATCATQRLANFLRHSSPNFGAIPSSTNVGPETY-NH2; disulfide 2-7) |
| 34.0 | 34.0 | 1.09 nM | 6.6 | 6.6 | 6.6 | 6.6 | – | 0.327 nM | 0.1 nM | 6.6 | 0.05 nM | – | – | – | CC[C@H](C)[C@H](NC(=O)[C@H](C)NC(=O)CNC(=O)[C@H](Cc1ccccc1)NC(=O)[C@H](CC(N)=O)NC(=O)[C@@H]1CCCN1C(=O)[C@H](CO)NC(=O)[C@H](CO)NC(=O)[C@H](Cc1c[nH]cn1)NC(=O)[C@H](CCCNC(=N)N)NC(=O)[C@H](CC(C)C)NC(=O)[C@H](Cc1ccccc1)NC(=O)[C@H](CCC(=O)O)NC(=O)[C@H](C)NC(=O)[C@H](CC(C)C)NC(=O)[C@H](CCCNC(=N)N)NC(=O)[C@H](CCC(N)=O)NC(=O)[C@@H](NC(=O)[C@H](C)NC(=O)[C@@H]1CSSC[C@H](NC(=O)[C@H](CCCCN)NC(=O)CC[C@H](NC(=O)CCCCCCCCCCCCCCCCCCC(=O)O)C(=O)O)C(=O)N[C@@H](CC(N)=O)C(=O)N[C@@H]([C@@H](C)O)C(=O)N[C@@H](C)C(=O)N[C@@H]([C@@H](C)O)C(=O)N1)[C@@H](C)O)C(=O)N1CCC[C@H]1C(=O)N[C@@H](CO)C(=O)N[C@@H](CO)C(=O)N[C@H](C(=O)N[C@@H](CC(N)=O)C(=O)N[C@H](C(=O)NCC(=O)N1CCC[C@H]1C(=O)N[C@@H](CC(N)=O)C(=O)N[C@H](C(=O)N[C@@H](Cc1ccc(O)cc1)C(N)=O)[C@@H](C)O)C(C)C)[C@@H](C)O [Example 32] ({C20 diacid-γGlu}-KCNTATCATQRLAEFLRHSSPNFGAIPSSTNVGPNTY-NH2; disulfide 2-7) |
| 52.0 | 52.0 | 73.4 nM | 8.4 | 8.4 | 8.4 | 8.4 | – | 2.62 nM | 1.14 nM | – | – | 52.0 | 0.313 nM | – | CC[C@H](C)[C@H](NC(=O)[C@H](C)NC(=O)CNC(=O)[C@H](Cc1ccccc1)NC(=O)[C@H](CC(N)=O)NC(=O)[C@@H]1CCCN1C(=O)[C@H](CO)NC(=O)[C@H](CO)NC(=O)[C@H](Cc1c[nH]cn1)NC(=O)[C@H](CCCNC(=N)N)NC(=O)[C@H](CC(C)C)NC(=O)[C@H](Cc1ccccc1)NC(=O)[C@H](CC(N)=O)NC(=O)[C@H](C)NC(=O)[C@H](CC(C)C)NC(=O)[C@H](CCCNC(=N)N)NC(=O)[C@H](CCC(N)=O)NC(=O)[C@@H](NC(=O)[C@H](C)NC(=O)[C@@H]1CSSC[C@H](NC(=O)[C@H](CCCCN)NC(=O)CC[C@H](NC(=O)CCCCCCCCCCCCCCCCCCC(=O)O)C(=O)O)C(=O)N[C@@H](CC(N)=O)C(=O)N[C@@H]([C@@H](C)O)C(=O)N[C@@H](C)C(=O)N[C@@H]([C@@H](C)O)C(=O)N1)[C@@H](C)O)C(=O)N1CCC[C@H]1C(=O)N[C@@H](CO)C(=O)N[C@@H](CO)C(=O)N[C@H](C(=O)N[C@@H](CC(N)=O)C(=O)N[C@H](C(=O)NCC(=O)N[C@@H](CO)C(=O)N[C@@H](CCCCN)C(=O)N[C@H](C(=O)N[C@@H](Cc1ccc(O)cc1)C(N)=O)[C@@H](C)O)C(C)C)[C@@H](C)O [Example 34] |
| – | 1.1 | 0.117 nM | 0.9 | – | – | – | 0.105 nM | 0.09 nM | 0.214 nM | – | – | – | – | 0.5 | CC[C@H](C)[C@H](NC(=O)[C@H](C)NC(=O)CNC(=O)[C@H](Cc1ccccc1)NC(=O)[C@H](CC(N)=O)NC(=O)[C@@H]1CCCN1C(=O)[C@H](CO)NC(=O)[C@H](CO)NC(=O)[C@H](Cc1c[nH]cn1)NC(=O)[C@H](CCCNC(=N)N)NC(=O)[C@H](CC(C)C)NC(=O)[C@H](Cc1ccccc1)NC(=O)[C@H](CCC(=O)O)NC(=O)[C@H](C)NC(=O)[C@H](CC(C)C)NC(=O)[C@H](CCCNC(=N)N)NC(=O)[C@H](CCC(N)=O)NC(=O)[C@@H](NC(=O)[C@H](C)NC(=O)[C@@H]1CSSC[C@H](NC(=O)[C@@H](N)CCCCNC(=O)CC[C@H](NC(=O)CCCCCCCCCCCCCCCCCCC(=O)O)C(=O)O)C(=O)N[C@@H](CC(N)=O)C(=O)N[C@@H]([C@@H](C)O)C(=O)N[C@@H](C)C(=O)N[C@@H]([C@@H](C)O)C(=O)N1)[C@@H](C)O)C(=O)N1CCC[C@H]1C(=O)N[C@@H](CO)C(=O)N[C@@H](CO)C(=O)N[C@H](C(=O)N[C@@H](CC(N)=O)C(=O)N[C@H](C(=O)NCC(=O)N1CCC[C@H]1C(=O)N[C@@H](CC(N)=O)C(=O)N[C@H](C(=O)N1CCC[C@H]1C(N)=O)[C@@H](C)O)C(C)C)[C@@H](C)O [Example 114] (H-K([γGlu-C20 diacid])CNTATCATQRLAEFLRHSSPNFGAIPSSTNVGPNTP-NH2; disulfide 2-7) |
